From patent US20260226006A1, “INDOLE COMPOUND, PREPARATION METHOD THEREFOR AND USE THEREOF” (SUZHOU MERNA THERAPEUTICS CO. LTD, priority 2023, published 2026)

Tests used:
[1] = tested on: HaCat cells; experiment: m6A methylation level of human HaCat keratinocytes, EpiQuik m6A RNA methylation quantification kit (Example 20); assay type: cell-based; conditions: for abnormal increase in the RNA m6A level of human keratinocytes caused by chemotherapeutic drugs and multikinase inhibitors: 400 nM compound after 50 nM drug; for m6A fold change relative to control group 1: HaCat cells, 24 hours
Description: HaCat cells were cultured in a DMEM culture medium containing 10% fetal bovine serum, 100 U/mL penicillin, and 100 μg/mL streptomycin. Culture dishes were placed in an incubator containing 5% CO2 for culture at 37° C. for 24 hours. An equal volume of DMSO was added in control group 1, 50 nM sorafenib, capecitabine, docetaxel, and osimertinib were respectively added in control groups A, B, C, and D, and 400 nM test compounds or nicotinamide were respectively added in sample groups A1-17, B1-17, C1-17, and D1-17 after the addition of 50 nM corresponding compounds. The cells were continuously cultured for 24 hours, washed with PBS, and then collected by high-speed centrifugation. Total RNA was extracted using a Trizol reagent (Sigma Aldrich), and RNA m6A methylation of a sample was quantitatively detected using an EpiQuik m6A RNA methylation quantification kit. The concentrations of positive control samples for a standard curve were 0.01 ng/μl, 0.02 ng/μl, 0.05 ng/μl, 0.1 ng/μl, 0.2 ng/μl, and 0.5 ng/μl. The absorbance at 450 nm was read using a microplate reader (Tecan GENios). A quantitative calculation formula for m6A is as follows:
m6A (ng)=(absorbance of sample well−absorbance of background well)/slope of standard curve m6A (%)=m6A (ng)/RNA amount of sample (ng)*100%.

[2] = tested on: paw plantar skin of rats; experiment: Rat models with hand-foot skin reaction, topical ointment (Example 22); assay type: in vivo, SD rats; conditions: for Incidence rate: 30 days; for incidence rate of hand-foot skin reaction at a drug application site: compounds at a mass content of 1% in ointment; for incidence rate of hand-foot skin reaction in all paws of the rats: compounds at mass contents of 3% and 10% in ointment; for differentiation of keratinocytes both in vitro and in vivo: summary of Examples 21 and 22
Description: After adaptive feeding for one week, SD rats (with a body weight of approximately 200 g) were randomly divided into groups according to the body weight, with 12 rats in each group. Modeling drugs (including sorafenib, erlotinib, afatinib, and osimertinib) were respectively dissolved in a solution containing 5% of DMSO, 45% of PEG400, and 50% of H2O, and the modeling drugs were diluted to required concentrations and then administered once daily by gavage at doses shown in Table 3. After administration by gavage for 1 hour, 0.05 g of ointments containing different mass proportions of test compounds were evenly applied to left paws of the rats, a blank matrix ointment was applied to right paws of the rats to serve as a self-control, and no ointment was applied to the rats in a blank control group. After drug application, four limbs were continuously immobilized for 2 hours, then wiped with clean water to remove the residual drugs, removed from immobilization, and restored to free movement. The modeling drugs, the blank matrix ointment, and the ointments containing the test compounds were all administered once daily. After continuous administration for 30 days, the rats were euthanized, and paw plantar skin tissues were collected, fixed in 10% neutral formalin, […]. The ointments for the test compounds were prepared by mixing the compounds, white beeswax, white petrolatum, and light liquid paraffin in specific ratios (weight ratios of 3 ointments were respectively 1:18:58:23, 3:18:57:22, and 10:20:40:30). The blank matrix ointment was prepared by mixing white beeswax, white petrolatum, and light liquid paraffin in a specific ratio (weight ratio of 18:60:22).
Tissue staining: After dewaxing and rehydration, the paw plantar skin tissue sections of the above rats were stained in a hematoxylin solution for several minutes, cleaned, and placed in 1% acid alcohol for soaking until the sections faded to light blue-red. After cleaning with running water for 5 minutes, the sections were stained with eosin for 2-3 minutes, cleaned to remove excess dyes, dehydrated, then permeabilized by adding xylene for several minutes, and sealed and fixed with a neutral resin. The stratum corneum was observed under an optical microscope, and the thickness of the epidermal stratum corneum was measured using Dmetrix software.
Immunohistochemical staining: After dewaxing and hydration, the paw plantar skin tissue sections of the above rats were incubated with 3% H2O2 at room temperature for 30 minutes and blocked with 10% goat serum for 30 minutes after antigen retrieval. A KRT1 antibody (Abcam, ab93652) and a Loricrin antibody (Abcam, ab183646) were added dropwise, the sections were incubated overnight at 4° C., and an HRP secondary antibody (ZSGB-BIO, PV-6001) and a DAB kit (ZSG-BIO, ZLI9017) were added for color development. The sections were re-stained with hematoxylin, cleaned, and sealed and fixed with a neutral resin, and the expression amounts of KRT1 and Loricrin were observed under an optical microscope.
An incidence rate calculation method involves a proportion of animals in each group meeting the above criteria for determining successful modeling, that is, incidence rate=(number of successfully modeled rats/total number of rats in the group)*100%. […]

[3] = 50 nM capecitabine + 400 nM test compound
[4] = 50 nM docetaxel + 400 nM test compound
[5] = 50 nM osimertinib + 400 nM test compound
[6] = 50 nM sorafenib + 400 nM test compound
[7] = afatinib 50 mg/kg, 1% compound ointment on left paw, left paw
[8] = afatinib 50 mg/kg, 1% compound ointment on left paw, right paw (blank matrix ointment)
[9] = afatinib 50 mg/kg, 3% compound ointment on left paw, left paw
[10] = afatinib 50 mg/kg, 3% compound ointment on left paw, right paw (blank matrix ointment)
[11] = afatinib 50 mg/kg, 10% compound ointment on left paw, left paw
[12] = afatinib 50 mg/kg, 10% compound ointment on left paw, right paw (blank matrix ointment)
[13] = erlotinib 70 mg/kg, 1% compound ointment on left paw, left paw
[14] = erlotinib 70 mg/kg, 1% compound ointment on left paw, right paw (blank matrix ointment)
[15] = erlotinib 70 mg/kg, 3% compound ointment on left paw, left paw
[16] = erlotinib 70 mg/kg, 3% compound ointment on left paw, right paw (blank matrix ointment)
[17] = erlotinib 70 mg/kg, 10% compound ointment on left paw, left paw
[18] = erlotinib 70 mg/kg, 10% compound ointment on left paw, right paw (blank matrix ointment)
[19] = osimertinib 60 mg/kg, 1% compound ointment on left paw, left paw
[20] = osimertinib 60 mg/kg, 1% compound ointment on left paw, right paw (blank matrix ointment)
[21] = osimertinib 60 mg/kg, 3% compound ointment on left paw, right paw (blank matrix ointment)
[22] = osimertinib 60 mg/kg, 10% compound ointment on left paw, left paw
[23] = osimertinib 60 mg/kg, 10% compound ointment on left paw, right paw (blank matrix ointment)
[24] = paw plantar skin of modeled rats, topical ointment
[25] = sorafenib 100 mg/kg, 1% compound ointment on left paw, left paw
[26] = sorafenib 100 mg/kg, 1% compound ointment on left paw, right paw (blank matrix ointment)
[27] = sorafenib 100 mg/kg, 3% compound ointment on left paw, left paw
[28] = sorafenib 100 mg/kg, 3% compound ointment on left paw, right paw (blank matrix ointment)
[29] = sorafenib 100 mg/kg, 10% compound ointment on left paw, left paw
[30] = sorafenib 100 mg/kg, 10% compound ointment on left paw, right paw (blank matrix ointment)

Row | Compound | abnormal increase in the RNA m6A level of human keratinocytes caused by chemotherapeutic drugs and multikinase inhibitors [1] | m6A fold change relative to control group 1 [1, 3] | m6A fold change relative to control group 1 [1, 4] | m6A fold change relative to control group 1 [1, 5] | m6A fold change relative to control group 1 [1, 6] | Incidence rate [2, 7] | Incidence rate [2, 8] | Incidence rate [2, 9] | Incidence rate [2, 10] | Incidence rate [2, 11] | Incidence rate [2, 12] | incidence rate of hand-foot skin reaction at a drug application site [2] | incidence rate of hand-foot skin reaction in all paws of the rats [2] | Incidence rate [2, 13] | Incidence rate [2, 14] | Incidence rate [2, 15] | Incidence rate [2, 16] | Incidence rate [2, 17] | Incidence rate [2, 18] | Incidence rate [2, 19] | also measured
1 | NC(=O)C1CCCc2c1[nH]c1ccc(Cl)cc21 (centres unmarked) [Compound 2, 6-chloro-2,3,4,9-tetrahydro-1H-carbazole-1-carboxamide] | effectively inhibit | 2.3 | 3.3 | 2.2 | 2.4 | 2/12 (17%) | 7/12 (58%) | 2/12 (17%) | 5/12 (42%) | 1/12 (8%) | 5/12 (42%) | significantly decrease | significantly decrease | 3/12 (25%) | 10/12 (83%) | 2/12 (17%) | 4/12 (33%) | 1/12 (8%) | 4/12 (33%) | 2/12 (17%) | Incidence rate [2, 20]: 9/12 (75%); Incidence rate [2, 21]: 4/12 (33%); Incidence rate [2, 22]: 0/12 (0%); Incidence rate [2, 23]: 3/12 (25%); formation of blisters, inflammatory cell infiltration in the dermis and skin congestion (pathological scoring) [2, 24]: effectively improve; Incidence rate [2, 25]: 3/12 (25%); Incidence rate [2, 26]: 8/12 (67%); Incidence rate [2, 27]: 1/12 (8%); Incidence rate [2, 28]: 5/12 (42%); Incidence rate [2, 29]: 0/12 (0%); Incidence rate [2, 30]: 5/12 (42%); differentiation of keratinocytes both in vitro and in vivo [2]: effectively inhibit; stratum corneum thickness of the paw plantar skin of the modeled rats ([2]; topical ointment): effectively decrease
2 | NC(=O)[C@H]1CCCc2c1[nH]c1ccc(Cl)cc21 [Compound 2b, (S)-6-chloro-2,3,4,9-tetrahydro-1H-carbazole-1-carboxamide] | effectively inhibit | 1.1 | 1.0 | 1.2 | 1.4 | 3/12 (25%) | 9/12 (75%) | 2/12 (17%) | 4/12 (33%) | 0/12 (0%) | 3/12 (25%) | significantly decrease | significantly decrease | 3/12 (25%) | 10/12 (83%) | 2/12 (17%) | 5/12 (42%) | 1/12 (8%) | 4/12 (33%) | 2/12 (17%) | Incidence rate [2, 20]: 8/12 (67%); Incidence rate ([2]; osimertinib 60 mg/kg, 3% compound ointment on left paw, left paw): 2/12 (17%); Incidence rate [2, 21]: 4/12 (33%); Incidence rate [2, 22]: 0/12 (0%); Incidence rate [2, 23]: 3/12 (25%); formation of blisters, inflammatory cell infiltration in the dermis and skin congestion (pathological scoring) [2, 24]: effectively improve; formation of blisters, inflammatory cell infiltration in the dermis and skin congestion (tissue staining) [2, 24]: effectively improve; Incidence rate [2, 25]: 2/12 (17%); Incidence rate [2, 26]: 9/12 (75%); Incidence rate [2, 27]: 2/12 (17%); Incidence rate [2, 28]: 4/12 (33%); Incidence rate [2, 29]: 0/12 (0%); Incidence rate [2, 30]: 4/12 (33%); differentiation of keratinocytes both in vitro and in vivo [2]: effectively inhibit; stratum corneum thickness of the paw plantar skin of the modeled rats ([2]; topical ointment): effectively decrease
